Assay results: article PMC12647645, “Structural interactions of BWC0977 with Klebsiella pneumoniae topoisomerase IV and biochemical basis of its broad-spectrum activity” (Communications Biology, 2025)
≈ marks a conversion by molar mass, not a printed value. Where “and” joins values, the source holds several entries; their conditions need not be identical. Equal values may be shown once.

Columns and labels:
[1] = biological target: K. pneumoniae fusion-truncated topoisomerase IV (ParE30-(Glu-Ser)-ParC55) (Klebsiella pneumoniae); experiment: crystal structure; ternary complex of ParEC core dimer, 26-bp DNA duplex and BWC0977 (23 uM ParEC core: 28 uM dsDNA: 200 uM BWC0977); sitting-drop vapor diffusion at 20 °C, 17% PEG 3350, 0.1 M sodium formate, 100 mM Bis-Tris propane pH 8.5; 3.05 Å
[2] = biological target: S. aureus topoisomerase IV (Staphylococcus aureus, UniProt P0C1S7+P0C1U9); experiment: biochemical; details: source data Fig 2C; for Topo IV decatenation inhibition response: S. aureus topo IV
Experimental: (§1) Assays with P. aeruginosa topoisomerase IV (3 nM) were conducted in a similar buffer but with 50 mM HEPES-KOH (pH 7.9), 100 mM potassium glutamate, 6 mM magnesium acetate, 6 mM DTT, 1 mM ATP, 2 mM spermidine, and 50 μg/mL albumin. For S. aureus topoisomerase IV assay, the reactions contained 4 nM enzyme in an assay buffer composed of 50 mM Tris-HCl (pH 7.5), 5 mM MgCl₂, 5 mM DTT, 1.5 mM ATP, 350 mM potassium glutamate, and 0.05 mg/mL albumin. The procedures followed were consistent with those used in the supercoiling assays. Decatenated minicircles were resolved on 0.8% agarose gels, while the kDNA substrate remained in the wells. Gels were stained with 0.8 μg/mL ethidium bromide solution for 10 min, followed by destaining. DNA bands were visualized using a gel documentation system, and compound inhibition analysis was carried out using the same procedures described for the supercoiling assays.

P. aeruginosa = test system: P. aeruginosa; design: method as in ref 6 (Hameed P et al., 2024); details: ref 6 (Hameed P et al., 2024); cited from earlier work
E. coli topoisomerase IV = biological target: T1, E. coli topoisomerase IV (Escherichia coli, UniProt P0AFI2+P20083); experiment: biochemical; type: biochemical; details: E. coli topo IV, source data Fig 2A
T1 construct: purchased Inspiralis

K. pneumoniae = details: ref 6 (Hameed P et al., 2024); cited from earlier work
A. baumannii = test system: A. baumannii; design: method as in ref 6 (Hameed P et al., 2024); details: ref 6 (Hameed P et al., 2024); cited from earlier work
[3] = biological target: P. aeruginosa topoisomerase IV (Pseudomonas aeruginosa, UniProt Q9HUJ8+Q9HUK1); experiment: Topoisomerase IV decatenation assay, P. aeruginosa; type: biochemical; details: for Topo IV decatenation inhibition response: P. aeruginosa topo IV
Experimental: as §1, with “Topoisomerase IV decatenation reactions were performed using 2.5 nM E. coli enzyme and 60 ng kinetoplast DNA (kDNA) in an assay buffer containing 50 mM HEPES-KOH (pH 7.6), 100 mM potassium glutamate, 10 mM magnesium acetate, 10 mM DTT, 1 mM ATP, and 50 μg/mL albumin. Assays” for “Assays”

E. coli ATCC 25922 = experiment: In vitro spontaneous resistance frequency; type: cell-based; details: 4× MIC
Experimental: (§2) Spontaneous resistance frequencies to BWC0977 were evaluated in E. coli ATCC 25922, P. aeruginosa ATCC 27853, and A. baumannii ATCC 19606. Mid-logarithmic phase cultures (~10^9 CFU/mL) were plated onto Luria-Bertani agar containing BWC0977 at 4×, 8×, and 16× the respective MICs. Plates were incubated at 37 °C for 24–36 h, and resistance frequencies were estimated by counting colony-forming units (CFUs) on the drug-containing plates. MICs of the isolated colonies were determined, and the gyrA, gyrB, parC, and parE genes were sequenced to assess for target-site mutations.

A. baumannii ATCC 19606 = experiment: In vitro spontaneous resistance frequency; type: cell-based; details: colonies selected at 4× MIC of the same compound
Experimental: as §2

[4] = biological target: ParEC core (ParE-ES-ParC fusion, topoisomerase IV) (Klebsiella pneumoniae, UniProt A6TE19 400-631+=ES+A6TE12:1-488, internal_change); experiment: X-ray crystallography (3.05 Å); BWC0977 (one molecule intercalated between DNA bases +2 and +3); Crystallization conditions not in material; protein in 20 mM Tris-HCl pH 7.5, 100 mM NaCl, 2 mM TCEP (6 mg/mL); DNA in nuclease-free water; details: protein: recombinant; tags: C-terminal His6; chain copies: 2; blunt; self-complementary, 2 copies of the strand

T1 sequence (P20083 whole entry): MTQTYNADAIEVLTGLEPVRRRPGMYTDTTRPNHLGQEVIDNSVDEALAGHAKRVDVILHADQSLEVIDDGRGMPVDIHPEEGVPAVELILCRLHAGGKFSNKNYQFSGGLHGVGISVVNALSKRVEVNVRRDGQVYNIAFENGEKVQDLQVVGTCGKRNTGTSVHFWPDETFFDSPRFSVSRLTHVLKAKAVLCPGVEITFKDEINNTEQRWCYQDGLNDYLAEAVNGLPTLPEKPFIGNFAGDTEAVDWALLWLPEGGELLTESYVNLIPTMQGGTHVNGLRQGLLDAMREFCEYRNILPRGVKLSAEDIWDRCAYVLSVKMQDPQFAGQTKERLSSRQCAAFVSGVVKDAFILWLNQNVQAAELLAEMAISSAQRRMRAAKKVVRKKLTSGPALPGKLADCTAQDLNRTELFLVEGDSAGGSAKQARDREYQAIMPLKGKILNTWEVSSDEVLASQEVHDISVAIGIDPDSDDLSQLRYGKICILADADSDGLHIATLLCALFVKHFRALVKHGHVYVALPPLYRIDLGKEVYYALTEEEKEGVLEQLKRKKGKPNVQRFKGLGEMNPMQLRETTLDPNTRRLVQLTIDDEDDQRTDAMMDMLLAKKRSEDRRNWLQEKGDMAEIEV
T1 sequence (P0AFI2 whole entry): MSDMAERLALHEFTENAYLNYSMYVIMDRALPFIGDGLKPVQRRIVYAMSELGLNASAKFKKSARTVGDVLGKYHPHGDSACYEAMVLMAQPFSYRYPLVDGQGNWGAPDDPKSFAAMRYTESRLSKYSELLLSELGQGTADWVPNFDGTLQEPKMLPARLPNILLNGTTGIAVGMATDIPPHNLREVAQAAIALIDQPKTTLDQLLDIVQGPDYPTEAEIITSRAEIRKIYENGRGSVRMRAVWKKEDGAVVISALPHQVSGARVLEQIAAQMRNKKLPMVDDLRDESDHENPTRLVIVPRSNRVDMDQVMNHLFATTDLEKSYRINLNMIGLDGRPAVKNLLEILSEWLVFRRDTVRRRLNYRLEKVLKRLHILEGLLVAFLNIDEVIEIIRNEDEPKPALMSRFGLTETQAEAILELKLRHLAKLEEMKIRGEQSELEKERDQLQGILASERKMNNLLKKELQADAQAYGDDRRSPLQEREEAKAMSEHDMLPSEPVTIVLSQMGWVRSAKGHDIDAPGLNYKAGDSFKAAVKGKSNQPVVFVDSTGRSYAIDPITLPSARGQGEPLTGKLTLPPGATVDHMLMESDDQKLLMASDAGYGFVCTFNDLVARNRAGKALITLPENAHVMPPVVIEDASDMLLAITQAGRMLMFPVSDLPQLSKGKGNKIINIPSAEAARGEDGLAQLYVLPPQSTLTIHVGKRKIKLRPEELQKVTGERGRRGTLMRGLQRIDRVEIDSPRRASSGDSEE

## K. pneumoniae fusion-truncated topoisomerase IV (ParE30-(Glu-Ser)-ParC55) (enzyme)
[1]
  stoichiometry N: 2

## O=C(O)c1cn(C2CC2)c2cc(N3CCNCC3)c(F)cc2c1=O [Ciprofloxacin, reference compound]
[2]; compound 0.823 μM, 0.823 µM
  Topo IV decatenation inhibition response: 25.54
[2]; compound 2.469 μM, 2.469 µM
  Topo IV decatenation inhibition response: 28.07
[2]; compound 7.407 μM, 7.407 µM
  Topo IV decatenation inhibition response: 38.66
[2]; compound 22.222 μM, 22.222 µM
  Topo IV decatenation inhibition response: 96.26
[2]; compound 66.67 μM, 66.67 µM
  Topo IV decatenation inhibition response: 92.59
[2]; compound 200 μM, 200 µM
  Topo IV decatenation inhibition response: 98.71
[2]; read-out: Topo IV decatenation inhibition response, S. aureus topo IV, compound 0.823 μM
  inhibition at 0.823 µM: 21.1%
[2]; read-out: Topo IV decatenation inhibition response, S. aureus topo IV, compound 2.469 μM
  inhibition at 2.469 µM: 31.3%
[2]; read-out: Topo IV decatenation inhibition response, S. aureus topo IV, compound 7.407 μM
  inhibition at 7.407 µM: 27.1%
[2]; read-out: Topo IV decatenation inhibition response, S. aureus topo IV, compound 22.222 μM
  inhibition at 22.222 µM: 99.1%
[2]; read-out: Topo IV decatenation inhibition response, S. aureus topo IV, compound 66.67 μM
  inhibition at 66.67 µM: 97.3%
[2]; read-out: Topo IV decatenation inhibition response, S. aureus topo IV, compound 200 μM
  inhibition at 200 µM: 99%
P. aeruginosa
  MIC90 against diverse global isolates: 16 µg/mL (≈ 48.3 µM)
E. coli topoisomerase IV; compound 2.34375 μM, 2.34375 µM
  Topo IV decatenation inhibition response: 0
E. coli topoisomerase IV; compound 4.6875 μM, 4.6875 µM
  Topo IV decatenation inhibition response: 17.91 and 12.76
E. coli topoisomerase IV; compound 4.6875 μM, read-out: Topo IV decatenation inhibition response
  inhibition at 4.6875 µM: 12.2%
E. coli topoisomerase IV; compound 9.375 μM, 9.375 µM
  Topo IV decatenation inhibition response: 51.63 and 50.29
E. coli topoisomerase IV; compound 9.375 μM, read-out: Topo IV decatenation inhibition response
  inhibition at 9.375 µM: 43.7%
E. coli topoisomerase IV; compound 18.75 μM, 18.75 µM
  Topo IV decatenation inhibition response: 65.07 and 61.86
E. coli topoisomerase IV; compound 18.75 μM, read-out: Topo IV decatenation inhibition response
  inhibition at 18.75 µM: 76.9%
E. coli topoisomerase IV; compound 37.5 μM, 37.5 µM
  Topo IV decatenation inhibition response: 82.71 and 68.2 and 60.49
E. coli topoisomerase IV; compound 75 μM, 75 µM
  Topo IV decatenation inhibition response: 75.94 and 67.64
E. coli topoisomerase IV; compound 75 μM, read-out: Topo IV decatenation inhibition response
  inhibition at 75 µM: 84.2%
E. coli topoisomerase IV; compound 150 μM, 150 µM
  Topo IV decatenation inhibition response: 82.92 and 70.66 and 58.85
K. pneumoniae
  MIC90 against diverse global isolates: > 32 µg/mL
A. baumannii
  MIC90 against diverse global isolates: > 32 µg/mL
[3]
  IC50: 31.2 µM
[3]; compound 0.293 μM, source data Fig 2B, 0.293 µM
  Topo IV decatenation inhibition response: 3.42
[3]; compound 9.375 μM, source data Fig 2B, 9.375 µM
  Topo IV decatenation inhibition response: 6.96
[3]; compound 37.5 μM, source data Fig 2B, 37.5 µM
  Topo IV decatenation inhibition response: 41.68 and 65.61
[3]; compound 75 μM, source data Fig 2B, 75 µM
  Topo IV decatenation inhibition response: 53.28 and 77.23
[3]; compound 150 μM, source data Fig 2B, 150 µM
  Topo IV decatenation inhibition response: 73.28
[3]; read-out: Topo IV decatenation inhibition response, P. aeruginosa topo IV, compound 0.293 μM, source data Fig 2B
  inhibition at 0.293 µM: 3.54%
[3]; read-out: Topo IV decatenation inhibition response, P. aeruginosa topo IV, compound 9.375 μM, source data Fig 2B
  inhibition at 9.375 µM: 4.24%
[3]; read-out: Topo IV decatenation inhibition response, P. aeruginosa topo IV, compound 150 μM, source data Fig 2B
  inhibition at 150 µM: 58.3%
E. coli ATCC 25922
  resistance frequency: 5 × 10^−9
A. baumannii ATCC 19606
  MIC increase of resistant colonies: 4- to 32 fold

B1: 26-bp palindromic DNA homoduplex (dsDNA)
DNA 1: TTACGTTGTATGATCATACAACGTAA
DNA 2: TTACGTTGTATGATCATACAACGTAA
[4]
  binding result: binds
